Source: patent US8952024B2, “Herbicidal pyrimidone derivatives” (E I du Pont de Nemours and Company, priority 2009, dated 2015)

The compounds below were run on barnyardgrass (Echinochloa crus-galli) (assay: Test A pre-/postemergence plant response). Conditions: Postemergence, 125 g ai/ha; 0 to 100 scale where 0 is no effect and 100 is complete control.
Type: in vivo
How it was run: (§1)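 Pre: directed soil spray on seeded loam/sand blend. Post: same formulation (non-phytotoxic solvent + surfactant) on 2–10 cm plants, 1–2 leaf stage. Greenhouse ~10 d; visual injury score 0–100 vs untreated.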

Question: How did the “Plant response rating, Barnyardgrass” value turn out when `COCCCn1c(-c2cc(F)cc(F)c2)ncc(C(=O)C2=C(O)CCCC2=O)c1=O` [Compound 120] was run?
Answer: The value was 90.

Same assay, conditions: Postemergence, 500 g ai/ha; 0 to 100 scale, 0 = no effect, 100 = complete control; approx. ten days

Question: How did the “Plant response rating, Barnyardgrass” value turn out when `COCCCn1c(-c2cc(F)cc(F)c2)ncc(C(=O)C2=C(O)CCCC2=O)c1=O` [Compound 120] was run?
Answer: The value was 90.

Same assay, conditions: Preemergence, 125 g ai/ha; 0 to 100 scale, 0 = no effect, 100 = complete control

Question: For `COCCCn1c(-c2cc(F)cc(F)c2)ncc(C(=O)C2=C(O)CCCC2=O)c1=O` [Compound 120], which “Plant response rating, Barnyardgrass” value is on record?
Answer: The value was 70.

Same assay, conditions: Preemergence, 500 g ai/ha; visual injury, 0 to 100 scale (0 no effect, 100 complete control), approx. ten days

Question: How did the “Plant response rating, Barnyardgrass” value turn out when `COCCCn1c(-c2cc(F)cc(F)c2)ncc(C(=O)C2=C(O)CCCC2=O)c1=O` [Compound 120] was run?
Answer: The value was 100.

The compounds below were run on corn (Zea mays) (assay: Test A pre-/postemergence plant response). Conditions: Postemergence, 125 g ai/ha; 0 to 100 scale where 0 is no effect and 100 is complete control.
Type: in vivo
How it was run: as §1

Question: How did the “Plant response rating, Corn” value turn out when `COCCCn1c(-c2cc(F)cc(F)c2)ncc(C(=O)C2=C(O)CCCC2=O)c1=O` [Compound 120] was run?
Answer: The value was 10.

Same assay, conditions: Postemergence, 500 g ai/ha; 0 to 100 scale, 0 = no effect, 100 = complete control; approx. ten days

Question: Which “Plant response rating, Corn” value does the source give for `COCCCn1c(-c2cc(F)cc(F)c2)ncc(C(=O)C2=C(O)CCCC2=O)c1=O` [Compound 120] here?
Answer: Its value is 50.

Same assay, conditions: Preemergence, 125 g ai/ha; 0 to 100 scale, 0 = no effect, 100 = complete control

Question: With `COCCCn1c(-c2cc(F)cc(F)c2)ncc(C(=O)C2=C(O)CCCC2=O)c1=O` [Compound 120] as the compound, how does the “Plant response rating, Corn” value read?
Answer: The value was 20.

Same assay, conditions: Preemergence, 500 g ai/ha; visual injury, 0 to 100 scale (0 no effect, 100 complete control), approx. ten days

Question: With `COCCCn1c(-c2cc(F)cc(F)c2)ncc(C(=O)C2=C(O)CCCC2=O)c1=O` [Compound 120] as the compound, how does the “Plant response rating, Corn” value read?
Answer: Its value is 30.

What follows are compounds tested on giant foxtail (Setaria faberii) (assay: Test A pre-/postemergence plant response). Conditions: Postemergence, 125 g ai/ha; 0 to 100 scale where 0 is no effect and 100 is complete control.
Type: in vivo
How it was run: as §1

Question: With `COCCCn1c(-c2cc(F)cc(F)c2)ncc(C(=O)C2=C(O)CCCC2=O)c1=O` [Compound 120] as the compound, how does the “Plant response rating, Foxtail, Giant” value read?
Answer: The value was 80.

Same assay, conditions: Postemergence, 500 g ai/ha; 0 to 100 scale, 0 = no effect, 100 = complete control; approx. ten days

Question: For `COCCCn1c(-c2cc(F)cc(F)c2)ncc(C(=O)C2=C(O)CCCC2=O)c1=O` [Compound 120], which “Plant response rating, Foxtail, Giant” value is on record?
Answer: Its value is 90.

Same assay, conditions: Preemergence, 125 g ai/ha; 0 to 100 scale, 0 = no effect, 100 = complete control

Question: How did the “Plant response rating, Foxtail, Giant” value turn out when `COCCCn1c(-c2cc(F)cc(F)c2)ncc(C(=O)C2=C(O)CCCC2=O)c1=O` [Compound 120] was run?
Answer: The value was 90.

Same assay, conditions: Preemergence, 500 g ai/ha; visual injury, 0 to 100 scale (0 no effect, 100 complete control), approx. ten days

Question: `COCCCn1c(-c2cc(F)cc(F)c2)ncc(C(=O)C2=C(O)CCCC2=O)c1=O` [Compound 120] was tested. Which “Plant response rating, Foxtail, Giant” value did it give?
Answer: Its value is 100.

What follows are compounds tested on large crabgrass (Digitaria sanguinalis) (assay: Test A pre-/postemergence plant response). Conditions: Postemergence, 125 g ai/ha; 0 to 100 scale where 0 is no effect and 100 is complete control.
Type: in vivo
How it was run: as §1

Question: For `COCCCn1c(-c2cc(F)cc(F)c2)ncc(C(=O)C2=C(O)CCCC2=O)c1=O` [Compound 120], which “Plant response rating, Crabgrass, Large” value is on record?
Answer: Its value is 90.

Same assay, conditions: Postemergence, 500 g ai/ha; 0 to 100 scale, 0 = no effect, 100 = complete control; approx. ten days

Question: `COCCCn1c(-c2cc(F)cc(F)c2)ncc(C(=O)C2=C(O)CCCC2=O)c1=O` [Compound 120] was tested. Which “Plant response rating, Crabgrass, Large” value did it give?
Answer: The value was 100.

Same assay, conditions: Preemergence, 125 g ai/ha; 0 to 100 scale, 0 = no effect, 100 = complete control

Question: Which “Plant response rating, Crabgrass, Large” value does the source give for `COCCCn1c(-c2cc(F)cc(F)c2)ncc(C(=O)C2=C(O)CCCC2=O)c1=O` [Compound 120] here?
Answer: Its value is 100.

Same assay, conditions: Preemergence, 500 g ai/ha; visual injury, 0 to 100 scale (0 no effect, 100 complete control), approx. ten days

Question: For `COCCCn1c(-c2cc(F)cc(F)c2)ncc(C(=O)C2=C(O)CCCC2=O)c1=O` [Compound 120], which “Plant response rating, Crabgrass, Large” value is on record?
Answer: The value was 100.

Each compound was assayed on morningglory (Ipomoea spp.) (assay: Test A pre-/postemergence plant response). Conditions: Postemergence, 125 g ai/ha; 0 to 100 scale where 0 is no effect and 100 is complete control.
Type: in vivo
How it was run: as §1

Question: Which “Plant response rating, Morningglory” value does the source give for `COCCCn1c(-c2cc(F)cc(F)c2)ncc(C(=O)C2=C(O)CCCC2=O)c1=O` [Compound 120] here?
Answer: The value was 100.

Same assay, conditions: Postemergence, 500 g ai/ha; 0 to 100 scale, 0 = no effect, 100 = complete control; approx. ten days

Question: Which “Plant response rating, Morningglory” value does the source give for `COCCCn1c(-c2cc(F)cc(F)c2)ncc(C(=O)C2=C(O)CCCC2=O)c1=O` [Compound 120] here?
Answer: The value was 100.

Same assay, conditions: Preemergence, 125 g ai/ha; 0 to 100 scale, 0 = no effect, 100 = complete control

Question: How did the “Plant response rating, Morningglory” value turn out when `COCCCn1c(-c2cc(F)cc(F)c2)ncc(C(=O)C2=C(O)CCCC2=O)c1=O` [Compound 120] was run?
Answer: The value was 30.

Same assay, conditions: Preemergence, 500 g ai/ha; visual injury, 0 to 100 scale (0 no effect, 100 complete control), approx. ten days

Question: Which “Plant response rating, Morningglory” value does the source give for `COCCCn1c(-c2cc(F)cc(F)c2)ncc(C(=O)C2=C(O)CCCC2=O)c1=O` [Compound 120] here?
Answer: The value was 90.

What follows are compounds tested on pigweed (Amaranthus retroflexus) (assay: Test A pre-/postemergence plant response). Conditions: Postemergence, 125 g ai/ha; 0 to 100 scale where 0 is no effect and 100 is complete control.
Type: in vivo
How it was run: as §1

Question: For `COCCCn1c(-c2cc(F)cc(F)c2)ncc(C(=O)C2=C(O)CCCC2=O)c1=O` [Compound 120], which “Plant response rating, Pigweed” value is on record?
Answer: Its value is 90.
